What was measured:
B. subtilis = experiment: Bacterial growth assay, media supplemented with ascarosides; assay type: cell-based; details: FIG. 1B
Protocol: (§1) FIG. 1A provides a graph and images of P. syringae growth. Bacterial growth media were supplemented with different concentrations of ascarosides. Ten-fold serially diluted bacterial cells were plated and bacterial growth and quantification was performed 3 days post incubation. FIG. 1B provides images of B. subtilis growth. Bacterial growth media were supplemented with different concentrations of ascarosides. Ten-fold serially diluted bacterial cells were plated and bacterial growth and quantification was performed 18 hours post incubation. FIG. 1C provides a graph showing biofilm formation of S. marcescens in the presence of 1 nM of ascr #3, ascr #9, ascr #10, and ascr #18. *P<0.05, **P<0.001, two-tailed t-test. Bacterial growth and biofilm assays have been independently repeated at least three times.
(§2) To test whether bacteria respond to ascarosides, a simple growth assay was utilized. […] Enhanced growth and rhizosphere colonization of P. fluorescens has been observed in the presence of nematodes (Knox, et al. (2004) Appl. Environ. Microbiol., 70:4666-4671) and this may be due to ascr #18 excretion. Next, a wider selection of bacterial species from soil and human environments, including P. tabacum, P. fluorescens, S. marcescens, E. faecalis, and B. subtilis, was studied. […] In contrast to ascr #18, the effects of other ascarosides such as ascr #9, ascr #10, and ascr #3 were species-specific.

P. fluorescens = experiment: as above; assay type: cell-based
Source text: as §2

S. marcescens = experiment: as above; assay type: cell-based
Source text: as §2

soil microbiome = experiment: Soil samples treated with ascr #18, microbial DNA sequencing (16s rRNA, ITS); details: low nanomolar concentrations, 24 hours; preliminary analyses
Protocol: (§3) To investigate whether ascarosides affect soil microbiomes, soil samples were collected from sites free from pesticide and fertilizer applications to ensure inclusion of a representative diversity of natural microbes (Panke-Buisse, et al. (2015) ISME J., 9:980-9; Lebeis, et al. (2015) Science 349:860-864). The soil samples were treated with low nanomolar concentrations of ascr #18 for 24 hours followed by microbial DNA and metabolome extraction. DNA sequencing was performed by targeting conserved 16s rRNA for bacteria and internal transcribed spacer (ITS) gene for fungi (Panke-Buisse, et al. (2015) ISME J., 9:980-9).

P. syringae [1] = experiment: Bacterial growth assay, media supplemented with ascarosides; assay type: cell-based; details: growth media supplemented with 1 and 10 nM; FIG. 1A
Protocol: as §1, §2

A. tumefaciens = experiment: as above; assay type: cell-based; details: growth media supplemented with 1 and 10 nM
Source text: as §2

E. coli [2] = experiment: as above; assay type: cell-based; details: growth media supplemented with 1 and 10 nM
Source text: as §2

E. faecalis = experiment: as above; assay type: cell-based
Source text: as §2

P. tabacum = experiment: as above; assay type: cell-based
Source text: as §2

soil samples = experiment: Comparative metabolomics of soil samples treated with ascr #18; assay type: in vitro ADME
Protocol: as §3
(§4) To identify which specific microbes from the soil are responsible for ascr #18 metabolism, the effect of ascr #18 on individual microbes was tested. Bacteria and fungi in the soil interact with nematodes in diverse ways (Lakshmanan, et al. (2014) Plant Physiol., 166:689-700; Knox, et al. (2004) Appl. Environ. Microbiol., 70:4666-4671; Siddiqui, et al. (1999) Bioresour. Technol., 69:167-179). Microbial metabolism of ascr #18 was assessed in three bacteria, E. coli, Agrobacterium tumefaciens, and P. syringae and two fungi, Aspergillus fumigatus and A. flavus, all of which are commonly found in soil. […] Whereas, like fungi, all tested plants and animals are capable of metabolizing ascr #18, it appears that bacteria (and perhaps other prokaryotes) lack this ability.

A. flavus = experiment: Microbial metabolism of ascr #18; assay type: in vitro ADME
Protocol: as §4

[3] = test system: Agrobacterium tumefaciens; experiment: Microbial metabolism of ascr #18; assay type: in vitro ADME
Protocol: as §4

Aspergillus fumigatus = experiment: Microbial metabolism of ascr #18; assay type: in vitro ADME
Protocol: as §4

E. coli [4] = experiment: Microbial metabolism of ascr #18; assay type: in vitro ADME
Protocol: as §4

P. syringae [5] = experiment: Microbial metabolism of ascr #18; assay type: in vitro ADME
Protocol: as §4

Compound	bacterial growth of B. subtilis (B. subtilis)	bacterial growth of P. fluorescens (P. fluorescens)	bacterial growth of S. marcescens (S. marcescens)	effect on microbial composition of the soil (soil microbiome)	bacterial growth of P. syringae (P. syringae [1])	bacterial growth of A. tumefaciens (A. tumefaciens)	bacterial growth of E. coli (E. coli [2])	bacterial growth of E. faecalis (E. faecalis)	bacterial growth of P. tabacum (P. tabacum)	metabolism of ascr #18 in soil samples (soil samples)	metabolism of ascr #18 by A. flavus (A. flavus)	metabolism of ascr #18 by Agrobacterium tumefaciens [3]	metabolism of ascr #18 by Aspergillus fumigatus (Aspergillus fumigatus)	metabolism of ascr #18 by E. coli (E. coli [4])	metabolism of ascr #18 by P. syringae (P. syringae [5])
C[C@H](CCC(=O)O)O[C@@H]1O[C@@H](C)[C@H](O)C[C@H]1O [ascr #9]	suppressed	suppressed	promoted growth	–	–	–	–	–	–	–	–	–	–	–	–
CC1O[C@@H](O[C@@H](C)CCCCCCCCC(=O)O)C(O)C[C@H]1O (stereo in doubt) [ascr #18, (10R)-(3′R,5′R-dihydroxy-6'S-methyl-(2H)-tetrahydropyran-2-yloxy)-undecanoic acid]	generally promoted growth	generally promoted growth	generally promoted growth	shifts microbial composition of the soil	significant growth increase	not affected	not affected	generally promoted growth	generally promoted growth	extensively edited into shorter side-chained ascarosides	metabolized into shorter-chained ascarosides	none of the bacteria were able to metabolize	metabolized into shorter-chained ascarosides	none of the bacteria were able to metabolize	none of the bacteria were able to metabolize
CC1O[C@@H](O[C@H](C)CCCC/C=C/C(=O)O)C(O)C[C@H]1O (stereo partly drawn) [ascr #3]	suppressed	suppressed	promoted growth	–	–	–	–	–	–	–	–	–	–	–	–
CC1O[C@@H](O[C@H](C)CCCCCCC(=O)O)C(O)C[C@H]1O (stereo partly drawn) [ascr #10]	suppressed	suppressed	promoted growth	–	–	–	–	–	–	–	–	–	–	–	–

From patent publication US12604893B2, “Compositions and methods for modulating microbiomes” (BOYCE THOMPSON INSTITUTE FOR PLANT RESEARCH, INC., priority 2019, dated 2026)
